This note sets out measurements from the OligoGym collection.

In this series the target is UBE3A-ATS. As to the kind of experiment: mouse, dose not given. Conditions: ASO.

HELM strings list units from the 5' end as sugar, base in round brackets, then linkage (d deoxyribose, r ribose, m 2'-O-methyl, p phosphodiester). Strings are as the collection lists them; they lack the last nucleoside at the 3' end of the tested compound. [moe] = 2'-O-(2-methoxyethyl) (MOE); [sp] = phosphorothioate linkage; [m5C] = 5-methylcytosine

As to “RNA1{[moe]([m5C])[sp].[moe](T)p.[moe](T)p.[moe](A)p.[moe](A)p.d(A)[sp].d(T)[sp].d(A)[sp].d(G)[sp].d(T)[sp].d(A)[sp].d(G)[sp].d(G)[sp].d(A)[sp].d(A)[sp].[moe](A)p.[moe](G)p.[moe]([m5C])[sp].[moe]([m5C])}$$$$ (last 3' nucleoside missing)”, the 3 h FOB score is 4.8 score 0-7. With “RNA1{[moe](T)[sp].[moe](T)p.[moe](A)p.[moe](G)p.[moe](T)p.d(G)[sp].d(T)[sp].d([m5C])[sp].d(A)[sp].d(T)[sp].d(A)[sp].d(T)[sp].d(G)[sp].d(T)[sp].d(A)[sp].[moe](G)p.[moe]([m5C])p.[moe](A)[sp].[moe](A)}$$$$ (last 3' nucleoside missing)”, the 3 h FOB score came out at 1 score 0-7. The same measure for “RNA1{[moe](G)[sp].[moe]([m5C])p.[moe](T)p.[moe](T)p.[moe](T)p.d(A)[sp].d(T)[sp].d(A)[sp].d([m5C])[sp].d(T)[sp].d(T)[sp].d(T)[sp].d(A)[sp].d([m5C])[sp].d([m5C])[sp].[moe]([m5C])p.[moe](A)p.[moe](A)[sp].[moe]([m5C])}$$$$ (last 3' nucleoside missing)”: 1 score 0-7. Consider “RNA1{[moe](T)[sp].[moe](A)p.[moe](G)p.[moe](T)p.[moe](T)p.d(T)[sp].d([m5C])[sp].d(A)[sp].d([m5C])[sp].d([m5C])[sp].d(G)[sp].d(A)[sp].d(A)[sp].d(A)[sp].d(G)[sp].[moe](T)p.[moe](A)p.[moe]([m5C])[sp].[moe](A)}$$$$ (last 3' nucleoside missing)”, for which the 3 h FOB score turned out to be 2.5 score 0-7.

As for “RNA1{[moe](T)[sp].[moe](T)p.[moe](A)p.[moe](G)p.[moe](G)p.d([m5C])[sp].d(A)[sp].d(A)[sp].d(T)[sp].d(G)[sp].d(G)[sp].d(A)[sp].d([m5C])[sp].d(T)[sp].d(T)[sp].[moe](A)p.[moe](G)p.[moe](T)[sp].[moe](A)}$$$$ (last 3' nucleoside missing)”, the 3 h FOB score is 1 score 0-7. The same measure for “RNA1{[moe](G)[sp].[moe](G)p.[moe](T)p.[moe]([m5C])p.[moe](A)p.d(T)[sp].d([m5C])[sp].d(T)[sp].d([m5C])[sp].d(G)[sp].d(G)[sp].d(G)[sp].d(T)[sp].d(A)[sp].d(T)[sp].[moe](A)p.[moe](T)p.[moe](A)[sp].[moe](A)}$$$$ (last 3' nucleoside missing)”: 4.2 score 0-7. In the case of “RNA1{[moe](G)[sp].[moe](T)p.[moe](G)p.[moe](T)p.[moe](G)p.d(G)[sp].d(A)[sp].d(T)[sp].d(G)[sp].d(G)[sp].d(T)[sp].d(A)[sp].d(T)[sp].d([m5C])[sp].d([m5C])[sp].[moe](T)p.[moe](G)p.[moe](G)[sp].[moe](T)}$$$$ (last 3' nucleoside missing)” it was 5.5 score 0-7.

The substance “RNA1{[moe](T)[sp].[moe](G)p.[moe](A)p.[moe](T)p.[moe]([m5C])p.[moe](A)p.d([m5C])[sp].d(A)[sp].d(T)[sp].d(T)[sp].d(A)[sp].d([m5C])[sp].d([m5C])[sp].d([m5C])[sp].d(A)[sp].d(T)[sp].[moe]([m5C])p.[moe]([m5C])[sp].[moe](G)}$$$$ (last 3' nucleoside missing)” gave a 3 h FOB score of 0 score 0-7. The same measure for “RNA1{[moe](G)[sp].[moe](T)p.[moe](G)p.[moe](A)p.d(G)[sp].d([m5C])[sp].d(T)[sp].d(A)[sp].d(T)[sp].d([m5C])[sp].d(T)[sp].d(G)[sp].d(T)[sp].d(A)[sp].[moe]([m5C])p.[moe](A)p.[moe](A)p.[moe](A)[sp].[moe](A)}$$$$ (last 3' nucleoside missing)”: 4 score 0-7. In the case of “RNA1{[moe]([m5C])[sp].[moe](A)p.[moe]([m5C])p.[moe]([m5C])p.[moe](T)p.d(A)[sp].d(G)[sp].d(G)[sp].d([m5C])[sp].d(T)[sp].d(G)[sp].d(G)[sp].d(G)[sp].d([m5C])[sp].d([m5C])[sp].[moe](T)p.[moe]([m5C])p.[moe](A)[sp].[moe](G)}$$$$ (last 3' nucleoside missing)” it was 3.5 score 0-7; in that of “RNA1{[moe](A)[sp].[moe](T)p.[moe](G)p.[moe](T)p.[moe](G)p.d(G)[sp].d(G)[sp].d([m5C])[sp].d([m5C])[sp].d(T)[sp].d([m5C])[sp].d(T)[sp].d(A)[sp].d(T)[sp].d(T)[sp].[moe](A)p.[moe](A)p.[moe](G)[sp].[moe](A)}$$$$ (last 3' nucleoside missing)”, 0.7 score 0-7; in that of “RNA1{[moe](T)[sp].[moe](G)p.[moe](T)p.[moe](T)p.[moe](G)p.d(T)[sp].d(A)[sp].d(T)[sp].d(G)[sp].d([m5C])[sp].d(A)[sp].d(G)[sp].d(G)[sp].d(T)[sp].d(T)[sp].[moe]([m5C])p.[moe](A)p.[moe](T)[sp].[moe]([m5C])}$$$$ (last 3' nucleoside missing)”, 4.5 score 0-7. In the case of “RNA1{[moe](T)[sp].[moe](G)p.[moe](T)p.[moe](G)p.[moe]([m5C])p.[moe](A)[sp].d(T)[sp].d(A)[sp].d([m5C])[sp].d([m5C])[sp].d([m5C])[sp].d(A)[sp].d(G)[sp].d(G)[sp].[moe](G)p.[moe](T)[sp].[moe](A)}$$$$ (last 3' nucleoside missing)” it was 1 score 0-7; in that of “RNA1{[moe](G)[sp].[moe](T)p.[moe]([m5C])p.[moe](A)[sp].d(T)[sp].d([m5C])[sp].d(T)[sp].d([m5C])[sp].d(G)[sp].d(G)[sp].d(G)[sp].d(T)[sp].[moe](A)p.[moe](T)p.[moe](A)p.[moe](T)[sp].[moe](A)}$$$$ (last 3' nucleoside missing)”, 4.3 score 0-7; in that of “RNA1{[moe](A)[sp].[moe](T)p.[moe]([m5C])p.[moe](A)p.[moe](T)p.d(G)[sp].d(T)[sp].d(G)[sp].d([m5C])[sp].d(A)[sp].d(T)[sp].d(A)[sp].d([m5C])[sp].d([m5C])[sp].d([m5C])[sp].[moe](A)p.[moe](G)p.[moe](G)[sp].[moe](G)}$$$$ (last 3' nucleoside missing)”, 0 score 0-7.

Take “RNA1{[moe](T)[sp].[moe]([m5C])p.[moe](A)p.[moe]([m5C])p.[moe](A)p.d(T)[sp].d(T)[sp].d(A)[sp].d([m5C])[sp].d([m5C])[sp].d([m5C])[sp].d(A)[sp].d(T)[sp].d([m5C])[sp].d([m5C])[sp].[moe](G)p.[moe](T)p.[moe](T)[sp].[moe]([m5C])}$$$$ (last 3' nucleoside missing)”: the 3 h FOB score stood at 0 score 0-7. In the case of “RNA1{[moe](T)[sp].[moe](G)p.[moe]([m5C])p.[moe](T)p.[moe]([m5C])p.d(A)[sp].d(G)[sp].d(T)[sp].d(T)[sp].d(A)[sp].d(G)[sp].d(G)[sp].d(T)[sp].d(T)[sp].d(A)[sp].[moe](G)p.[moe](T)p.[moe](G)[sp].[moe]([m5C])}$$$$ (last 3' nucleoside missing)” it was 4.3 score 0-7. The same measure for “RNA1{[moe](T)[sp].[moe]([m5C])p.[moe](A)p.[moe](A)p.[moe]([m5C])p.[moe]([m5C])[sp].d(A)[sp].d(A)[sp].d(T)[sp].d(T)[sp].d(T)[sp].d(G)[sp].d([m5C])[sp].d(T)[sp].[moe](A)p.[moe](T)[sp].[moe](T)}$$$$ (last 3' nucleoside missing)”: 3 score 0-7. The same measure for “RNA1{[moe](A)[sp].[moe](A)p.[moe]([m5C])p.[moe](T)p.[moe](T)p.d([m5C])[sp].d(A)[sp].d(T)[sp].d([m5C])[sp].d(A)[sp].d(A)[sp].d(T)[sp].d(A)[sp].d(T)[sp].d(T)[sp].[moe](T)p.[moe]([m5C])p.[moe]([m5C])[sp].[moe]([m5C])}$$$$ (last 3' nucleoside missing)”: 1 score 0-7. With “RNA1{[moe](A)[sp].[moe]([m5C])p.[moe](G)p.[moe]([m5C])p.[moe](A)[sp].d(A)[sp].d(T)[sp].d(G)[sp].d(T)[sp].d(A)[sp].d(T)[sp].d([m5C])[sp].d(A)[sp].[moe](G)p.[moe](G)p.[moe]([m5C])[sp].[moe](A)}$$$$ (last 3' nucleoside missing)”, the 3 h FOB score worked out at 2.3 score 0-7.

In turn, “RNA1{[moe](T)[sp].[moe]([m5C])p.[moe](A)p.[moe](T)p.[moe]([m5C])[sp].d(T)[sp].d([m5C])[sp].d(G)[sp].d(G)[sp].d(G)[sp].d(T)[sp].d(A)[sp].d(T)[sp].[moe](A)p.[moe](T)p.[moe](A)[sp].[moe](A)}$$$$ (last 3' nucleoside missing)” came in with a 3 h FOB score of 3 score 0-7. In the case of “RNA1{[moe](G)[sp].[moe](G)p.[moe]([m5C])p.[moe]([m5C])p.[moe](T)p.d(G)[sp].d(A)[sp].d([m5C])[sp].d(T)[sp].d(A)[sp].d(G)[sp].d(G)[sp].d([m5C])[sp].d(A)[sp].d(T)[sp].[moe](T)p.[moe](G)p.[moe](A)[sp].[moe](A)}$$$$ (last 3' nucleoside missing)” it was 3 score 0-7; in that of “RNA1{[moe]([m5C])[sp].[moe](A)p.[moe]([m5C])p.[moe](A)p.[moe](T)p.d(T)[sp].d(A)[sp].d([m5C])[sp].d([m5C])[sp].d([m5C])[sp].d(A)[sp].d(T)[sp].d([m5C])[sp].d([m5C])[sp].d(G)[sp].[moe](T)p.[moe](T)p.[moe]([m5C])[sp].[moe](T)}$$$$ (last 3' nucleoside missing)”, 0 score 0-7. The same measure for “RNA1{[moe](T)[sp].[moe]([m5C])p.[moe](A)p.[moe]([m5C])p.[moe]([m5C])p.d(A)[sp].d(T)[sp].d(T)[sp].d(T)[sp].d(T)[sp].d(G)[sp].d(A)[sp].d([m5C])[sp].d([m5C])[sp].d(T)[sp].[moe](T)p.[moe]([m5C])p.[moe](T)[sp].[moe](T)}$$$$ (last 3' nucleoside missing)”: 1 score 0-7; for “RNA1{[moe](A)[sp].[moe](G)p.[moe]([m5C])p.[moe]([m5C])[sp].d(A)[sp].d(G)[sp].d(G)[sp].d(T)[sp].d(G)[sp].d(T)[sp].d([m5C])[sp].d(T)[sp].[moe](T)p.[moe](A)p.[moe](T)p.[moe](A)[sp].[moe](T)}$$$$ (last 3' nucleoside missing)”: 6 score 0-7; for “RNA1{[moe]([m5C])[sp].[moe]([m5C])p.[moe]([m5C])p.[moe](A)p.[moe](T)p.d(T)[sp].d(A)[sp].d(G)[sp].d(A)[sp].d([m5C])[sp].d([m5C])[sp].d([m5C])[sp].d(A)[sp].d(T)[sp].d(G)[sp].[moe](G)p.[moe]([m5C])p.[moe](T)[sp].[moe]([m5C])}$$$$ (last 3' nucleoside missing)”: 7 score 0-7.
